Data set [1] can be described thus: Metabolic stability in pooled human liver microsomes (half-life). The class given is in vitro ADME. The note with it: pooled human liver microsomes, pH 7.6, 37° C., 1 μM test compound, read-out: Half-life t1/2. (In general: Liver microsomes are vesicles of endoplasmic reticulum, rich in cytochrome P450 enzymes.)
The target of data set [2] is human SSTR3 (Homo sapiens (Human), UniProt P32745). Briefly: Radioligand binding assay, CHO cell membranes expressing recombinant human SSTR3. From the text: (§1) Radioligand Binding Assays
human SSTR3, sequence (P32745 whole entry): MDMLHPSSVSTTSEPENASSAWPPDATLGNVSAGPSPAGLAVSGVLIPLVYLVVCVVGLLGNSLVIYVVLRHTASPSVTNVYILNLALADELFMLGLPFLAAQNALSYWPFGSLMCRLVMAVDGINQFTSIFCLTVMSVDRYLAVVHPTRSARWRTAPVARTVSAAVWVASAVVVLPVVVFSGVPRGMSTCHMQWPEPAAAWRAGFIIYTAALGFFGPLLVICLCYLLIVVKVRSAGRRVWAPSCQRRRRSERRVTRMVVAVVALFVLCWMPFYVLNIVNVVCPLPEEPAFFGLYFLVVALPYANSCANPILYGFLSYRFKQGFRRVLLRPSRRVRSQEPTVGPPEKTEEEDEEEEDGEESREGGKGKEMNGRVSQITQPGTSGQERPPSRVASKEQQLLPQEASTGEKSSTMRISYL
(§2) Method Description for Binding Assays with Human Somatostatin Receptors by Use of CHO Cell Membranes Expressing Recombinant Human SSTR1 or Human SSTR2 or Human SSTR3 or Human SSTR4 or Human SSTR5
(§3) Receptor binding assays refer to a technique in which labeled receptor ligands are used to detect binding to a receptor. In competition experiments test compounds, which are not labeled, compete with the binding side of a labeled ligand. The displacement of the labeled ligand by the test compound leads to a decreased signal.
(§4) For the binding experiments 200 μL of membrane homogenate from one of the following protein amounts is used: hSSTR1 (40 μg/well); hSSTR2 (25 μg/well); hSSTR3 (1.5 μg/well); hSSTR4 (0.5 μg/well); hSSTR5 (25 μg/well). […] The incubation is terminated by filtration with ice cold NaCl 0.9% through polyethyleneimine treated (0.3%) GF/B glass fiber filters using a cell harvester. The protein-bound radioactivity is measured in a suitable reader. The non-specific binding is defined as radioactivity bound in the presence of 1 μM Somatostatin-14 during the incubation period.
(§5) The analysis of the concentration-binding curves is performed by computer-assisted nonlinear least square curve fitting method using the model of one receptor binding site.
(§6) Selectivity data was obtained with the aid of the above described radioligand binding assays.

Data set [3] concerns the target human SSTR5 (Homo sapiens (Human), UniProt P35346). Briefly: Radioligand binding assay, CHO cell membranes expressing recombinant human SSTR5.
From the text: as §1, §2, §3, §4, §5, §6

The target in data set [4] is human SSTR4 (Homo sapiens (Human), UniProt P31391). Briefly: Radioligand binding assay, CHO cell membranes expressing recombinant human SSTR4.
human SSTR4, sequence (P31391 whole entry): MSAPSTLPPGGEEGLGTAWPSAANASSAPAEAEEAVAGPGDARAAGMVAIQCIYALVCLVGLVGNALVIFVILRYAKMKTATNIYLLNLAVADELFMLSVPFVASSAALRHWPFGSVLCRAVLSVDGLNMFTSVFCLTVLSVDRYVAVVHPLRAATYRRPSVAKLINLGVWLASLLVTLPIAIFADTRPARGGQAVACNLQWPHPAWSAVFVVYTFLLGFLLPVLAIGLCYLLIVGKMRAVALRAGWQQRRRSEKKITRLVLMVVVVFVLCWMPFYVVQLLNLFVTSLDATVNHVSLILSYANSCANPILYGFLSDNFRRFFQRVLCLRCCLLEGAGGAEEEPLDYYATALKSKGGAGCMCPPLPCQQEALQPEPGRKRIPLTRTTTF
From the text: as §1, §2, §3, §4, §5, §6

For data set [5], the target named is human SSTR1 (Homo sapiens (Human), UniProt P30872). Briefly: Radioligand binding assay, CHO cell membranes expressing recombinant human SSTR1.
human SSTR1, sequence (P30872 whole entry): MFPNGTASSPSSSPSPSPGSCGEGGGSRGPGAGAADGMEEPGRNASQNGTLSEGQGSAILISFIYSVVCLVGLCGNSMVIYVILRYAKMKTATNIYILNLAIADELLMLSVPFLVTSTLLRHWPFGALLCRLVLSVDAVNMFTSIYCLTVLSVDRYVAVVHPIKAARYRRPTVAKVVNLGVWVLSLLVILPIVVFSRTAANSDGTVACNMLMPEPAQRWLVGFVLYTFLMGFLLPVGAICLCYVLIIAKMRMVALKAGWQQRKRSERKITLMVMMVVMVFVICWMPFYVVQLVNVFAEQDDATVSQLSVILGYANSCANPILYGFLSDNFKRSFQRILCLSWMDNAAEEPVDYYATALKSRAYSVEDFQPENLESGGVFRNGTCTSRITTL
From the text: as §1, §2, §3, §4, §5, §6

The target of data set [6] is human SSTR2 (Homo sapiens (Human), UniProt P30874). Briefly: Radioligand binding assay, CHO cell membranes expressing recombinant human SSTR2.
human SSTR2, sequence (P30874 whole entry): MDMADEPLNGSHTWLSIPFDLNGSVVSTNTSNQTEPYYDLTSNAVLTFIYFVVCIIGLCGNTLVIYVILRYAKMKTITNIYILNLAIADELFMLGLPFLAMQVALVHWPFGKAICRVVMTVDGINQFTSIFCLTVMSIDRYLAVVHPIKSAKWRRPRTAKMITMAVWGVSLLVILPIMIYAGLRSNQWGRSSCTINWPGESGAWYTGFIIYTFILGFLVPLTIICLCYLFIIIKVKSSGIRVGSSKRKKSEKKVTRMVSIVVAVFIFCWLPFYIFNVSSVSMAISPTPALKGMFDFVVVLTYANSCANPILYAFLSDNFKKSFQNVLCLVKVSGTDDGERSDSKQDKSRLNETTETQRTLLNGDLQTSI
From the text: as §1, §2, §3, §4, §5, §6

In data set [7] the target is human Somatostatin 4 receptor (SSTR4) (Homo sapiens (Human), UniProt P31391). Briefly: cAMP assay with human somatostatin 4 receptor (hSSTR4 expressing H4 cells). The class given is cell-based. On the technique in general: Cyclic AMP is a second messenger, typically raised through Gs and lowered through Gi signalling.
human Somatostatin 4 receptor (SSTR4), sequence (P31391 whole entry): as the sequence (P31391 whole entry) above
Setting [8] is: cAMP assay, read-out: SSTR4 agonism EC50.

pEC50, pKi: −log10 of the molar value. Like-named read-outs stand apart in the source and are kept apart here. Bounds are passed on as bounds.

human SSTR5, sequence (P35346 whole entry): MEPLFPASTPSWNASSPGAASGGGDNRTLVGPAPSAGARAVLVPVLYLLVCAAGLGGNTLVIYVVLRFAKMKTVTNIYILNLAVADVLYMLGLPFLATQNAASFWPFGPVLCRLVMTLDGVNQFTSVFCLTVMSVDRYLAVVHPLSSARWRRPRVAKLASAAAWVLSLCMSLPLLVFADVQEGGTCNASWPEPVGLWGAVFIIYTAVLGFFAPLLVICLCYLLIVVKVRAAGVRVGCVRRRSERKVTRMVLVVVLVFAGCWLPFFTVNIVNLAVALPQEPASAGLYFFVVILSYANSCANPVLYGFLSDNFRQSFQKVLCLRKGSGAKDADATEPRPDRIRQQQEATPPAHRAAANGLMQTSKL

By pKi is commonly meant the Ki on a negative log10 scale, so that one unit is a factor of ten. Usually pEC50 stands for −log10 of the EC50, conventionally taken in molar units. On to `Cc1cccn2c(C(C)(C)NC(=O)[C@H]3[C@@H]4CNC[C@@H]43)ncc12.Cl` [Example 126], for which, in data set [1], the half-life at 1 μM was above 2.17 h. In addition, the pKi in data set [2] is below 5.06; in data set [3], below 5.01; in data set [4] it was 8.52; in data set [5], 5.18; in data set [6], below 5.02. This compound gave a pEC50 in data set [7] (SSTR4 agonism EC50, cAMP assay) of 9.40.

On to `Cc1cccn2c(C(C)(C)NC(=O)[C@H]3[C@@H]4CNC[C@@H]43)nc(C3CC3)c12` [Example 128], for which the half-life at 1 μM in data set [1] is above 2.17 h. The pKi in data set [2] is 5.21; in data set [3], below 5.01; in data set [4], 8.12; in data set [5], 5.96; in data set [6], below 5.02. Further, the pEC50 in data set [7] (setting [8]) was 9.40.

Turning to `Cc1nc(C(C)(C)NC(=O)[C@H]2[C@@H]3CNC[C@@H]32)c2ccccc2n1` [Example 138], the half-life at 1 μM in data set [1] is above 2.17 h. Further, the pKi in data set [2] was below 5.06; in data set [3] it was below 5.01; in data set [4] it was 7.15; in data set [5] it was 5.13; in data set [6], below 5.02. The pEC50 in data set [7] (setting [8]) is 8.37.

On to `Cc1nc(C(C)(C)NC(=O)[C@H]2[C@@H]3CNC[C@@H]32)c2cccc(C)c2n1` [Example 148], for which the half-life at 1 μM in data set [1] was above 2.17 h. Moreover, the pKi in data set [2] is below 5.06; in data set [3], below 5.01; in data set [4], 7.49; in data set [5], 5.18; in data set [6], below 5.02. For the same compound, in data set [7] (SSTR4 agonism EC50, cAMP assay), the pEC50 was 8.96.

Source of the values: patent publication US9789082B2, “Somatostatin receptor subtype 4 (SSTR4) agonists” (Centrexion Therapeutics Corporation, priority 2013, dated 2017).
